Results: US20090253658A1, “Fat Accumulation Inhibitor” (priority 2006, published 2009)

Assays:
[1] = system: visceral fat; experiment: Inhibition of visceral fat accumulation (high fat feed animal test, dissection on 8th week); format: in vivo
Description: Using the sphingomyelin obtained in Example 7, an action of inhibition of visceral fat accumulation was verified. An animal test was carried out using 8 animals per group by a group in which a high fat feed blended with sphingomyelin was fed (sphingomyelin diet group) and a group in which a high fat feed not blended with sphingomyelin was fed (high fat diet group). In the animal test, the high fat feed was provided until the 4th week after rearing, and thereafter the group was divided into 5 groups, and the high fat feed or sphingomyelin-blended high fat feed was provided until the 8th week. By carrying out dissection on the 8th week, the amount of visceral fats (mesenteric, peri-testicular, perirenal, posterior abdominal) was measured.

[2] = system: adiponectin concentration in blood; experiment: Acceleration of increase and/or inhibition of decrease of adiponectin concentration in blood (high fat feed animal test, ELISA); format: in vivo
Description: Using the sphingomyelin obtained in Example 7, an action of acceleration of increase and/or inhibition of decrease of an adiponectin concentration in blood was verified. An animal test was carried out using 8 animals per group by a group in which a high fat feed blended with sphingomyelin was fed (sphingomyelin diet group) and a group in which a high fat feed not blended with sphingomyelin was fed (high fat diet group). The high fat diet was prepared using a milk casein as a protein source and a butter oil as a lipid source. In the animal test, a feed was provided until the 4th week after rearing, and thereafter the group was divided into 5 groups, and the high fat feed or sphingomyelin-blended high fat feed was provided until the 8th week. Blood collection was carried out on the 4th week and on the 8th week, and an adiponectin concentration in blood was measured using a Mouse/Rat Adiponectin ELISA Kit (manufactured by Otsuka Pharmaceutical Co., Ltd.).

Substance: sphingomyelin [Sphingomyelin (Example 7)]
- Amount of visceral fat, Mesenteric ([1]; dissection on the 8th week): 2.19 g
- Amount of visceral fat, Perirenal ([1]; dissection on the 8th week): 0.74 g
- Amount of visceral fat, peri-testicular ([1]; dissection on the 8th week): 3.22 g
- Amount of visceral fat, posterior abdominal ([1]; dissection on the 8th week): 2.11 g
- Amount of visceral fat (in words) ([1]; in comparison with the high fat diet group): low values
- Adiponectin concentration in blood with the lapse of time (in words) ([2]; 4th to 8th week, decreases in the high fat diet group): increases
- Adiponectin concentration in blood ([2]; 4 weeks (before start of sphingomyelin-blended high fat feed)): 10.88 µg/mL
- Adiponectin concentration in blood ([2]; 8 weeks (sphingomyelin-blended high fat feed from 4th to 8th week)): 15.65 µg/mL
